What was measured:
Type in all cases: functional, cell-based
A-375 = assay: Cytotoxicity against human A375 cells by MTT assay
A549 = assay: Cytotoxicity against human A549 cells by MTT assay
THP-1 = assay: Cytotoxicity against human THP1 cells by MTT assay
HL-60 = assay: Cytotoxicity against human HL60 cells by MTT assay

Structure (SMILES)	IC50 (A-375) [µM]	IC50 (A549) [µM]	IC50 (THP-1) [µM]	IC50 (HL-60) [µM]
COc1cc([C@@H]2c3cc4c(cc3[C@@H](O[C@@H]3O[C@@H]5CO[C@@H](C)O[C@H]5[C@H](O)[C@H]3O)[C@H]3COC(=O)[C@H]23)OCO4)cc(OC)c1O [ETOPOSIDE]	3.92	9.51	2.16	1.83
CC1=CC(=O)[C@]23O[C@](C)(C=C2C1=O)CC[C@H]1[C@@H](C[C@H]3C)C1(C)C [MULTIFIDONE]	159	127	45.6	121

— ChEMBL document CHEMBL1139301, “Multifidone: a novel cytotoxic lathyrane-type diterpene having an unusual six-membered A ring from Jatropha multifida” (Bioorg Med Chem Lett, 2009)
